Results reported in patent publication US10117853B2, “Cyclic amine derivative and pharmaceutical use thereof” (Toray Industries, Inc., priority 2015, dated 2018).
Where a name gives a salt, the structure may show the parent alone.

Assays:
[1] = system: mouse partial sciatic nerve ligation model; assay: Mouse partial sciatic nerve ligation model (Seltzer model), von Frey test; format: in vivo, Crl: CD1 (ICR) mice; details: oral administration seven days after ligation; 0.01 to 10 mg/kg depending on compound, pregabalin 10 mg/kg; 1, 2, 3 hours after administration; versus partial sciatic nerve ligation+distilled water group
Procedure: Using a partial sciatic nerve ligation model (Seltzer model) in mice by which neuropathic pain can be evaluated, the analgesic action of a cyclic amine derivative (I) or a pharmacologically acceptable salt thereof was investigated.
The mouse partial sciatic nerve ligation model was prepared in accordance with the method of Seltzer et al. (Malmberg et al., Pain, vol. 76, p. 215-222, 1998).
Crl: CD1 (ICR) mice (5 weeks old, male; from CHARLES RIVER LABORATORIES JAPAN, INC.) was anesthetized with sodium pentobarbital (70 mg/kg, intraperitoneal administration). The sciatic nerve at the femoral region of the right hind paw of each mouse was exposed and triply ligated tightly with silk suture of 8-0 (from NATSUME […]., LTD.) under a stereomicroscope so that only half thickness of the nerve was trapped in the ligature. A group of mice thus treated was designated as a partial sciatic nerve ligation group. A group of mice whose sciatic nerve was just exposed and not ligated was designated as a sham surgery group.
Evaluation of neuropathic pain (hereinafter referred to as von Frey test) was performed as follows. Mice were conditioned for at least one hour in an acrylic cage for measurement (from NATSUME […]. LTD.) placed on a wire net. Thereafter, using a filament (from North Coast Medical or neuroscience) which exerted a pressure of 0.16 g, the mice were subjected to mechanical tactile stimulus by applying the filament to the plantar surface of the right hind paw 3 times, each for 3 seconds, with an interval of 3 seconds.
Seven days after the sciatic nerve ligation surgery, the compound of Example 4, 6, 8, 10, 12, 14, 16, 18 or 20 (1 to 10 mg/kg for each of the compounds of Examples 4, 6 and 8, 0.1 to 10 mg/kg for each of the compounds of Examples 16 and 18, 0.01 to 10 mg/kg for each of the compounds of Examples 10, 12 and 14; and 0.1 to 1 mg/kg for the compound of Example 20) or pregabalin as a positive control (10 mg/kg; KEMPROTEC) was dissolved in distilled water and orally administered to mice of the partial sciatic nerve ligation group. The groups of the partial sciatic nerve ligation mice to which the compound of Example 4, 6, 8, 10, 12, 14, 16, 18 or 20 was administered were designated as a “partial sciatic nerve ligation+the compound of Example 4” group; a “partial sciatic nerve ligation+the compound of Example 6” group; a “partial sciatic nerve ligation+the compound of Example 8” group; a “partial sciatic nerve ligation+the compound of Example 10” group; a “partial sciatic nerve ligation+the compound of Example 12” group; a “partial sciatic nerve ligation+the compound of Example 14” group; a “partial sciatic nerve ligation+the compound of Example 16” group; a “partial sciatic nerve ligation+the compound of Example 18” group; and a “partial sciatic nerve ligation+the compound of Example 20” group, respectively. The partial sciatic nerve ligation mouse group to which pregabalin was administered, was designated as a “partial sciatic nerve ligation+pregabalin” group. Also, the partial sciatic nerve ligation mouse group to which distilled water was orally administered, was designated as a “partial sciatic nerve ligation+distilled water” group. The sham surgery mouse group to which distilled water was orally administered was designated as a “sham surgery+distilled water” group.
The von Frey test was carried out before oral administration of a test compound (pre-value), one hour, two hours and three hours after the oral administration of a test compound.
In the figures, the vertical axis represents the total score (mean value±standard error; n=5 to 6 in FIGS. 1 to 9) in the von Frey test. The higher numerical value indicates stronger pain. The horizontal axis represents time (hr) after administration of a test compound. […]

[2] = system: fibromyalgia syndrome model rats; assay: Fibromyalgia syndrome model in rats (acidic saline), allodynia by von Frey filament; format: in vivo, Crl: CD(SD) rat; details: oral administration; Example 6 10 to 100 mg/kg, Example 18 1 to 100 mg/kg, pregabalin 10 mg/kg; 1 and 3 hours after administration; versus acidic saline+distilled water group
Source text: Using a fibromyalgia syndrome model in rats by which fibromyalgia syndrome can be evaluated, the analgesic action of a cyclic amine derivative (I) or a pharmacologically acceptable salt thereof was investigated.
To prepare a fibromyalgia syndrome model rat (Sluka et al., Journal of Pharmacology and Experimental Therapeutics, vol. 302, p. 1146-1150, 2002; Nagakura et al., Pain, vol. 146, p. 26-33, 2009; Sluka et al., Pain, vol. 146, p. 3-4, 2009), which is generally employed widely in basic research for fibromyalgia syndrome, acidic saline (100 μL) adjusted to pH4.0 was intramuscularly injected to the gastrocnemius muscle of the right hind paw of Crl: CD(SD) rat (6 to 7 weeks old, male; from CHARLES RIVER LABORATORIES JAPAN, INC.) under continuous inhalation anesthesia with isoflurane, twice (once in each day of Day 1 and Day 6, wherein Day 1 was the date on which the acidic saline was initially administrated). The rats thus prepared were raised in a breeding room controlled at an indoor temperature of 21 to 25° C. and an indoor humidity of 40 to 70% under the conditions of voluntary intake of food and water. In the same manner, rats to which physiological saline in place of acidic saline was intramuscularly injected were raised. The rats thus raised and not afflicted with fibromyalgia syndrome (“physiological saline+distilled water” group in FIG. 10 or 11) were also used in the experiment.
Seven days after the initial administration of acidic saline, allodynia in each rat was measured. […]
The compounds of Examples 6 and 18 (10 to 100 mg/kg for the compound of Example 6; 1 to 100 mg/kg for the compound of Example 18) were separately dissolved in distilled water and orally administered to fibromyalgia model rats (“acidic saline+the compound of Example 6” in FIG. 10 and “acidic saline+the compound of Example 18” in FIG. 11). […] In one hour and three hours after the oral administration, allodynia in individual rats was measured to evaluate an analgesic action. […]

SMILES | analgesic action, total score in the von Frey test [1] | allodynia, 50% response threshold (mean value of the right hind paw and the left hind paw) [2]
CCCCCOC(=O)Cn1ccnc1CCC(=O)N1CCC(N2CCOCC2)CC1 [Example 14, n-pentyl 2-(2-(3-(4-morpholinopiperidin-1-yl)-3-oxopropyl)-1H-imidazol-1-yl)acetate hydrochloride] | statistically significant analgesic action | 
CCCOC(=O)Cn1ccnc1CCC(=O)N1CCC(N2CCOCC2)CC1 [Example 10, n-propyl 2-(2-(3-(4-morpholinopiperidin-1-yl)-3-oxopropyl)-1H-imidazol-1-yl)acetate hydrochloride] | statistically significant analgesic action | 
CC(C)C[C@H](CN)CC(=O)O [pregabalin, reference compound] | statistically significant analgesic action | statistically significantly improved
CCCCCCOC(=O)Cn1ccnc1CCC(=O)N1CCC(N2CCOCC2)CC1 [Example 16, n-hexyl 2-(2-(3-(4-morpholinopiperidin-1-yl)-3-oxopropyl)-1H-imidazol-1-yl)acetate hydrochloride] | statistically significant analgesic action | 
CCCCOC(=O)Cn1ccnc1CCC(=O)N1CCC(N2CCOCC2)CC1 [Example 12, n-butyl 2-(2-(3-(4-morpholinopiperidin-1-yl)-3-oxopropyl)-1H-imidazol-1-yl)acetate hydrochloride] | statistically significant analgesic action | 
CCCCCCCOC(=O)Cn1ccnc1CCC(=O)N1CCC(N2CCOCC2)CC1 [Example 18, n-heptyl 2-(2-(3-(4-morpholinopiperidin-1-yl)-3-oxopropyl)-1H-imidazol-1-yl)acetate hydrochloride] | statistically significant analgesic action | statistically significantly improved
CCCCCCCCOC(=O)Cn1ccnc1CCC(=O)N1CCC(N2CCOCC2)CC1 [Example 20, n-octyl 2-(2-(3-(4-morpholinopiperidin-1-yl)-3-oxopropyl)-1H-imidazol-1-yl)acetate hydrochloride] | statistically significant analgesic action | 
CCCCCCOC(=O)CCn1ccnc1CCC(=O)N1CC[C@H](N(C)C)C1 [Example 4, n-hexyl (S)-3-(2-(3-(3-(dimethylamino)pyrrolidin-1-yl)-3-oxopropyl)-1H-imidazol-1-yl)propanoate hydrochloride] | statistically significant analgesic action | 
CCCCCCCOC(=O)CCn1ccnc1CCC(=O)N1CC[C@H](N(C)C)C1 [Example 6, n-heptyl (S)-3-(2-(3-(3-(dimethylamino)pyrrolidin-1-yl)-3-oxopropyl)-1H-imidazol-1-yl)propanote hydrochloride] | statistically significant analgesic action | statistically significantly improved
CCCCCCCCOC(=O)CCn1ccnc1CCC(=O)N1CC[C@H](N(C)C)C1 [Example 8, n-octyl (S)-3-(2-(3-(3-(dimethylamino)pyrrolidin-1-yl)-3-oxopropyl)-1H-imidazol-1-yl)propanoate hydrochloride] | statistically significant analgesic action | 
